From patent US20070179060A1, “6-(Poly-substituted aryl)-4-aminopicolinates and their use as herbicides” (priority 2006, published 2007)

Columns and labels:
[1] = system: velvetleaf (Abutilon theophrasti); assay: Postemergence herbicidal activity; type: in vivo; conditions: Abutilon theophrasti, post-emergence, 336 h, post-emergent, 140 g ai/ha, after 14 days; read-out: % Control ABUTH
Summary of the method: (§1)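 Compounds were applied postemergence by track sprayer delivering 187 L/ha, using a mixed organic/aqueous carrier containing crop oil concentrate and surfactant; solvent-blank sprays served as controls. Test plants were at the first to second true leaf stage after 7-21 days' greenhouse growth, were sub-irrigated after treatment, and were evaluated by probit analysis.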

[2] = system: lambsquarter (Chenopodium album); assay: Postemergence herbicidal activity; type: in vivo; conditions: Chenopodium album, post-emergence, 336 h, post-emergent, 140 g ai/ha, after 14 days; read-out: % Control CHEAL
Summary of the method: as §1

[3] = system: redroot pigweed (Amaranthus retroflexus); assay: Postemergence herbicidal activity; type: in vivo; conditions: Amaranthus retroflexus, post-emergence, 336 h, post-emergent, 140 g ai/ha, after 14 days; read-out: % Control AMARE
Summary of the method: as §1

Scirpus juncoides = assay: Herbicidal activity in transplanted paddy rice; type: in vivo; conditions: paddy water application, after 3 weeks; for pest or weed control at 17.5 g/ha: 17.5 g ai/ha; for pest or weed control at 70 g/ha: 70 g ai/ha
Method: (§2) Weed seeds or nutlets of the desired test plant species were planted in puddled soil (mud) prepared by mixing a non-sterilized mineral soil (28 percent silt, 18 percent clay, and 54 percent sand, with a pH of about 7.3 to 7.8 and an organic matter content of about 1.0 percent) and water at a ratio of 100 kg of soil to 19 L of water. The prepared mud was dispensed in 250 mL aliquots into 480 mL non-perforated plastic pots with a surface area of 91.6 square centimeters leaving a headspace of 3 centimeters in each pot. […] Seedlings at the second or third leaf stage of growth were transplanted into 650 mL of mud contained in 960 mL non-perforated plastic pots with a surface area of 91.6 square centimeters 4 days prior to herbicide application. The paddy was created by filling the 3 centimeter headspace of the pots with water. When required to ensure good germination and healthy plants, a fungicide treatment and/or other chemical or physical treatment was applied. The plants were grown for 4-14 days in a greenhouse with an approximate 14 hour photoperiod which was maintained at about 29° C. during the day and 26° C. during the night. Nutrients were added as Osmocote (17:6:10, N:P:K+minor nutrients) at 2 g per pot. Water was added on a regular basis to maintain the paddy flood, and supplemental lighting was provided with overhead metal halide 1000-Watt lamps as necessary. The plants were employed for testing when they reached the second or third true leaf stage. A weighed amount, determined by the highest rate to be tested, of each test compound was placed in a 120 mL glass vial and was dissolved in 20 mL of acetone to obtain concentrated stock solutions. […] Application rates of ½×, ¼×, ⅛× and 1/16× of the high rate were obtained by injecting an appropriate amount of the stock solution into the aqueous layer of the paddy. Control plants were treated in the same manner with the solvent blank. The treated plants and control plants were placed in a greenhouse as described above and water was added as needed to maintain a paddy flood.

Monochoria vaginalis = assay: Herbicidal activity in transplanted paddy rice; type: in vivo; conditions: paddy water application, after 3 weeks; for pest or weed control at 17.5 g/ha: 17.5 g ai/ha; for pest or weed control at 70 g/ha: 70 g ai/ha
Method: as §2

Echinochloa crus-galli = assay: Herbicidal activity in transplanted paddy rice; type: in vivo; conditions: paddy water application, after 3 weeks; for pest or weed control at 17.5 g/ha: 17.5 g ai/ha; for pest or weed control at 70 g/ha: 70 g ai/ha
Method: as §2

Cyperus difformis = assay: Herbicidal activity in transplanted paddy rice; type: in vivo; conditions: paddy water application, after 3 weeks; for pest or weed control at 17.5 g/ha: 17.5 g ai/ha; for pest or weed control at 70 g/ha: 70 g ai/ha
Method: as §2

[4] = system: rice (Orysa sativa var. Japonica); assay: Herbicidal activity in transplanted paddy rice; type: in vivo; conditions: transplant rice (crop), paddy water application, after 3 weeks; for pest or weed control at 17.5 g/ha: 17.5 g ai/ha; for pest or weed control at 70 g/ha: 70 g ai/ha
Method: as §2

[5] = system: velvetleaf (Abutilon theophrasti); assay: Preemergence herbicidal activity; type: in vivo; conditions: Abutilon theophrasti, pre-emergence, 480 h; pre-emergent, 140 g ai/ha, after 20-22 days; read-out: % Control ABUTH
Summary of the method: (§3)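 Seeds sown in 70:30 loam (pH about 8.1, about 1.5% organic matter) and sand mix, then sprayed preemergence at 187 L/ha with a track sprayer; controls received solvent blank. Pots kept in greenhouse, about 15 h photoperiod, about 23-29° C. day and 22-28° C. night, top-irrigated.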

[6] = system: lambsquarter (Chenopodium album); assay: Preemergence herbicidal activity; type: in vivo; conditions: Chenopodium album, pre-emergence, 480 h; pre-emergent, 140 g ai/ha, after 20-22 days; read-out: % Control CHEAL
Summary of the method: as §3

[7] = system: redroot pigweed (Amaranthus retroflexus); assay: Preemergence herbicidal activity; type: in vivo; conditions: Amaranthus retroflexus, pre-emergence, 480 h; pre-emergent, 140 g ai/ha, after 20-22 days; read-out: % Control AMARE
Summary of the method: as §3

[8] = Schoenoplectiella juncoides, 504 h, read-out: % Control SCPJU
[9] = Pontederia vaginalis, 504 h, read-out: % Control MOOVA
[10] = Echinochloa crus-galli, 504 h, read-out: % Control ECHCG
[11] = Cyperus difformis, 504 h, read-out: % Control CYPDI

SMILES | pest or weed control at 140 g/ha [1] [%] | pest or weed control at 140 g/ha [2] [%] | pest or weed control at 140 g/ha [3] [%] | melting point | pest or weed control at 70 g/ha (Scirpus juncoides; [8]) [%] | pest or weed control at 70 g/ha (Monochoria vaginalis; [9]) [%] | pest or weed control at 70 g/ha (Echinochloa crus-galli; [10]) [%] | pest or weed control at 70 g/ha (Cyperus difformis; [11]) [%] | pest or weed control at 70 g/ha ([4]; Oryza sativa, 504 h) [%] | further results
COC(=O)c1nc(-c2ccc(Cl)c(C(F)F)c2F)cc(N)c1Cl [Compound 4, 4-Amino-3-chloro-6-(4-chloro-2-fluoro-3-difluoromethylphenyl)pyridine-2-carboxylic acid methyl ester] | 100 | 85 | 100 | 145 to 146 °C | – | – | – | – | – | pest or weed control at 17.5 g/ha (Scirpus juncoides; [8]): 70%; pest or weed control at 17.5 g/ha (Monochoria vaginalis; [9]): 100%; pest or weed control at 17.5 g/ha (Echinochloa crus-galli; [10]): 0%; pest or weed control at 17.5 g/ha (Cyperus difformis; [11]): 95%; pest or weed control at 17.5 g/ha ([4]; Oryza sativa, 504 h): 0%
COC(=O)c1nc(-c2ccc(Cl)c(CF)c2F)cc(N)c1Cl [Compound 5, 4-Amino-3-chloro-6-(4-chloro-2-fluoro-3-fluoromethylphenyl)pyridine-2-carboxylic acid methyl ester] | 100 | 90 | 35 | – | 90 | 100 | 20 | 100 | 0 | –
CCOc1c(Cl)ccc(-c2cc(N)c(Cl)c(C(=O)OC)n2)c1Cl [Compound 7, 4-Amino-3-chloro-6-(2,4-dichloro-3-ethoxyphenyl)pyridine-2-carboxylic acid methyl ester] | 100 | 95 | 90 | 132 to 133 °C | 85 | 100 | 100 | 100 | 10 | –
CCOc1c(Cl)ccc(-c2cc(N)c(Cl)c(C(=O)OC)n2)c1F [Compound 41, 4-amino-3-chloro-6-(4-chloro-2-fluoro-3-ethoxyphenyl)-pyridine-2-carboxylic acid methyl ester] | 95 | 98 | 85 | 154 to 156 °C | – | – | – | – | – | pest or weed control at 140 g/ha [5]: 80%; pest or weed control at 140 g/ha [6]: 90%; pest or weed control at 140 g/ha [7]: 50%; pest or weed control at 17.5 g/ha (Scirpus juncoides; [8]): 90%; pest or weed control at 17.5 g/ha (Monochoria vaginalis; [9]): 100%; pest or weed control at 17.5 g/ha (Echinochloa crus-galli; [10]): 50%; pest or weed control at 17.5 g/ha (Cyperus difformis; [11]): 100%; pest or weed control at 17.5 g/ha ([4]; Oryza sativa, 504 h): 10%
COC(=O)c1nc(-c2ccc3c(c2F)OCO3)cc(N)c1Cl [Compound 46, 4-Amino-3-chloro-6-(2-fluoro-3,4 methylenedioxyphenyl)pyridine-2-carboxylic acid methyl ester] | 100 | 95 | 100 | 139 to 141 °C | – | – | – | – | – | pest or weed control at 35 g/ha (Scirpus juncoides; Schoenoplectiella juncoides, 504 h, 35 g ai/ha, read-out: % Control SCPJU): 100%; pest or weed control at 35 g/ha (Monochoria vaginalis; Pontederia vaginalis, 504 h, 35 g ai/ha, read-out: % Control MOOVA): 100%; pest or weed control at 35 g/ha (Echinochloa crus-galli; Echinochloa crus-galli, 504 h, 35 g ai/ha, read-out: % Control ECHCG): 20%; pest or weed control at 35 g/ha (Cyperus difformis; Cyperus difformis, 504 h, 35 g ai/ha, read-out: % Control CYPDI): 100%; pest or weed control at 35 g/ha ([4]; Oryza sativa, 504 h, 35 g ai/ha): 0%
COC(=O)c1nc(-c2ccc(Br)c(OC)c2Cl)cc(N)c1Cl [Compound 52, 4-Amino-6-(4-bromo-2-chloro-3-methoxyphenyl)-3-chloropyridine-2-carboxylic acid, methyl ester] | 100 | 95 | 100 | 154 to 155 °C | 95 | 99 | 60 | 100 | 0 | pest or weed control at 140 g/ha [5]: 100%; pest or weed control at 140 g/ha [6]: 90%; pest or weed control at 140 g/ha [7]: 100%
CCOC(=O)c1nc(-c2ccc(Cl)c(OC)c2F)cc(N)c1Cl [Compound 86, 4-amino-3-chloro-6-(4-chloro-2-fluoro-3-methoxyphenyl)-pyridine-2-carboxylic acid, ethyl ester] | 100 | 100 | 100 | – | 95 | 100 | 25 | 100 | 10 | –
CCCCOC(=O)c1nc(-c2c(F)cc(Cl)c(OC)c2F)cc(N)c1Cl [Compound 88, 4-Amino-3-chloro-6-(4-chloro-2,6-difluoro-3-methoxyphenyl)pyridine-2-carboxylic acid, butyl ester] | – | – | – | – | 100 | 100 | 100 | 100 | 10 | –
CCCCOC(=O)c1nc(-c2ccc(Cl)c(OC)c2Cl)cc(N)c1Cl [Compound 89, 4-Amino-3-chloro-6-(2,4-dichloro-3-methoxyphenyl)pyridine-2-carboxylic acid, butyl ester] | – | – | – | – | 90 | 100 | 85 | 100 | 0 | –
CC(F)c1c(Cl)ccc(-c2cc(N)cc(C(=O)O)n2)c1Cl (stereo not shown) [Compound 125, 4-Amino-6-[2,4 dichloro-3-(1-fluoroethyl)phenyl]pyridine-2-carboxylic acid] | – | – | – | 169 to 170 °C (dec.) | 100 | 100 | 100 | 100 | 5 | pest or weed control at 140 g/ha [5]: 100%; pest or weed control at 140 g/ha [6]: 100%; pest or weed control at 140 g/ha [7]: 100%
CCN(CC)CC.COc1c(Cl)ccc(-c2cc(N)c(Cl)c(C(=O)O)n2)c1Cl [Compound 136, 4-Amino-3-chloro-6-(2,4 dichloro-3-methoxyphenyl)pyridine-2-carboxylic acid, triethyl amine salt] | – | – | – | – | – | – | – | – | – | % Control SCPJU (Scirpus juncoides; 35 g ai/ha): 80%; % Control MOOVA (Monochoria vaginalis; 35 g ai/ha): 100%; % Control ECHCG (Echinochloa crus-galli; 35 g ai/ha): 15%; % Control CYPDI (Cyperus difformis; 35 g ai/ha): 100%; % Control ORYSA ([4]; 35 g ai/ha): 0%
